Entries after “also recorded” stand apart in the source; their conditions may differ.
Tests used:
[1] = test system: human colorectal adenocarcinoma cell line HCT15; type: cell-based; conditions: for activity on cell growth (growth inhibition / cytotoxic effect): HCT-15, FIGS. 14 and 15
From the text: The x-axis depicts the molar concentration of the respective compound on a logarithmical scale.

[2] = test system: IGR-OV1 cells; experiment: Oncological test against IGR-OV1 cells; type: cell-based, human; conditions: IGR-OV1, FIGS. 12 and 13
From the text: (§1) FIGS. 10 to 17 show the activity of compounds ESP_2.2, ESP_2.5 and ESP_31 according to the invention as well as the comparative examples ESP_2 and ESP_3 (Table 4) in relation to the concentration employed against various different cancer cells. […] The x-axis depicts the molar concentration of the respective compound on a logarithmical scale.
The epithelial morphology of IGR-OV1 cells was retained during in vitro and in vivo passages. Two cytogenetic markers characterize IGR-OV1 cells: a paracentric inversion of chromosome 3, and a translocation between chromosomes 2 and 5. These characteristics make the IGR-OV1 cell line a suitable experimental model for the treatment of human ovarian carcinomas and for biological studies of human solid tumors.

[3] = test system: primary clear renal cell adenocarcinoma (cell line 786-0); experiment: Oncological test against 786-0 cells; type: cell-based; conditions: 786-0, FIGS. 16 and 17
From the text: as §1
This cell line is derived from a primary clear renal cell adenocarcinoma. The cells display both microvilli and desmosomes, and can be grown in soft agar. The cells produce a PTH like peptides that is identical to peptides produced by breast and lung tumors. The peptide has an N terminal sequence similar to PTH, has PTH like activity, and has a molecular weight of 6000 daltons.

[4] = test system: various cancer cells; experiment: Oncological tests, summary over FIGS. 10 to 17; type: cell-based; conditions: ovarian, colon and kidney cancer cells
From the text: as §1

| SMILES | melting point [°C] | further results |
| --- | --- | --- |
| CCCCCCCCCCCCCCCCCCN(CCBr)CCCCCCCCCCCCCCCCCC | 69 to 71 | – |
| CCCCCCCCCCCCCCCCCCN1CCCC1 | 25 to 27 | – |
| COc1ccc(C(OC[C@H]2O[C@@H](n3cnc4c(=O)n(C/C=C(\C)CCC=C(C)C)cnc43)C[C@@H]2O)(c2ccccc2)c2ccc(OC)cc2)cc1 [Compound 4a, 9-((2R,4S,5R)-5-((Bis(4-methoxyphenyl)(phenyl)methoxy)-methyl)-4-hydroxytetrahydrofuran-2-yl)-1-((E)-3,7-di-methylocta-2,6-dienyl)-1H-purin-6(9H)-one] | 74 | – |
| COc1ccc(C(OC[C@H]2O[C@@H](n3cnc4c(=O)n(C/C=C(\C)CC/C=C(\C)CCC=C(C)C)cnc43)C[C@@H]2O)(c2ccccc2)c2ccc(OC)cc2)cc1 [Compound 4b, 9-((2R,4S,5R)-5-((Bis(4-methoxyphenyl)(phenyl)methoxy)-methyl)-4-hydroxytetrahydrofuran-2-yl)-1-((2E,6E)-3,7,11-trimethyldodeca-2,6,10-trienyl)-1H-purin-6(9H)-on] | 68 | – |
| CCCCCCCCCC1(CCCCCCCCC)O[C@@H]2[C@H](O1)[C@@H](CO)O[C@H]2n1ccc(=O)[nH]c1=O [Compound 25b, 1-((3aR,4R,6R,6aR)-6-(hydroxymethyl)-2,2-dinonyltetrahydrofuro[3,4-d][1,3]dioxol-4-yl)pyrimidin-2,4(1H,3H)-dione] | 69.8 | – |
| CCCCCCCCCCCCCC1(CCCCCCCCCCCCC)O[C@@H]2[C@H](O1)[C@@H](CO)O[C@H]2n1ccc(=O)[nH]c1=O [Compound 25c, 1-((3aR,4R,6R,6aR)-6-(hydroxymethyl)-2,2-ditridecyltetrahydrofuro[3,4-d][1,3]dioxol-4-yl)pyrimidin-2,4(1H,3H)-dione] | 90.1 | – |
| CCOC(=O)CC[C@@]1(C)O[C@@H]2[C@H](O1)[C@@H](COC(c1ccccc1)(c1ccccc1)c1ccc(OC)cc1)O[C@H]2n1ncc(=O)[nH]c1=O [ESP_2.2, Ethyl-3-((3aR,4R,6R,6aR)-4-(3,5-dioxo-4,5-dihydro-1,2,4-triazin-2(3H)-yl)-6-(((4-methoxyphenyl)diphenylmethoxy)methyl)-2-methyltetrahydrofuro[3,4-d][1,3]dioxol-2-yl)propanoate] | – | activity on cell growth (growth inhibition / cytotoxic effect) [1]: increased activity; activity on cell growth (growth inhibition / cytotoxic effect) [2]: activity of the compound could be increased |
| CCOC(=O)CCC1(C)O[C@@H]2[C@H](O1)[C@@H](CO)O[C@H]2n1ncc(=O)n(C/C=C(\C)CC/C=C(\C)CCC=C(C)C)c1=O (stereo partly drawn) [ESP_2.5, Ethyl-3-((3aR,4R,6R,6aR)-4-(3,5-dioxo-4-((2E,6E)-3,7,11-trimethyldodeca-2,6,10-trien-1-yl)-4,5-dihydro-1,2,4-triazin-2 (3H)-yl)-6-(hydroxymethyl)-2-methyltetrahydrofuro[3,4-d][1,3]dioxol-2-yl)propanoate] | – | activity on cell growth (growth inhibition / cytotoxic effect) [3]: high cytotoxic effect; activity on cell growth (growth inhibition / cytotoxic effect) [1]: increased activity; death of the cells (cytotoxic effect) ([1]; HCT-15, employed in high dosage): over 50%; activity / cytotoxicity against various cancer cells [4]: particular high cytotoxicity; activity on cell growth (growth inhibition / cytotoxic effect) [2]: improved inhibition effect |
| O=c1ccn([C@@H]2O[C@H](CO)[C@@H](O)[C@H]2O)c(=O)[nH]1 [ESP_3, uridine, reference compound] | – | activity on cell growth (growth inhibition / cytotoxic effect) [3]: does not show any activity at all; also recorded: did not show any activity at all; activity on cell growth (growth inhibition / cytotoxic effect) [2]: did not even cause a growth inhibition |
| CCCCCCCCCC1(CCCCCCCCC)OC2[C@@H](CO)O[C@@H](n3ccc(=O)[nH]c3=O)[C@H]2O1 (stereo partly drawn) [ESP_31] | – | activity on cell growth (growth inhibition / cytotoxic effect) [3]: cytotoxic effect; activity on cell growth (growth inhibition / cytotoxic effect) [1]: high cytotoxic activity; activity on cell growth (growth inhibition / cytotoxic effect) [2]: vast improvement with respect to the cytotoxic activity |

Further lines, with some results ahead:

| melting point [°C] | SMILES | further results |
| --- | --- | --- |
| 93 | CCCCCCCCCCCCCCCC1(CCCCCCCCCCCCCCC)OC2C(CO)OC(n3ccc(=O)[nH]c3=O)C2O1 (stereo not drawn) [Compound 25d, 1-(6-Hydroxymethyl-2,2-dipentadecyl-tetrahydro-furo[3,4-d][1,3]dioxol-4-yl)-1H-pyrimidin-2,4-dione] | – |
| 102 to 103 | CCCCCCCCCCCCCCCCCCN(CCCCCCCCCCCCCCCCCC)CC(=O)O [Compound 37, N,N-dioctadecylglycine] | – |
| 44 to 45 | CCCCCCCCCCCCCCCCCCN(CCCCCCCCCCCCCCCCCC)C(C)C(=O)OC (stereo not drawn) [Compound 41, Methyl N,N-dioctadecyl-2-aminopropionate] | – |
| 48 to 49 | CCCCCCCCCCCCCCCCCCN(CCCO)CCCCCCCCCCCCCCCCCC [Compound 42, 3-(Dioctadecylamino)propanol] | – |
| 68 to 69 | CCCCCCCCCCCCCCCCCCN(CCCCCCCCCCCCCCCCCC)C(=O)CCC(=O)O [Compound 46, 4-(Dioctadecylamino)-4-oxobutanoic acid] | – |
| 29 to 30 | CCCCCCCCCCCCCCCCCCN(CCCCCCCCCCCCCCCCCC)C(=O)CCC(=O)OC [Compound 47, Methyl 4-(dioctadecylamino)-4-oxobutanoate] | – |
| 57 to 58 | CCCCCCCCCCCCCCCCCCN(CCCCO)CCCCCCCCCCCCCCCCCC [Compound 48a, 4-(Dioctadecylamino)butan-1-ol] | – |
| 51 to 52 | CCCCCCCCCCCCCCCCCCN(CC#CCCl)CCCCCCCCCCCCCCCCCC [Compound 51, 4-Chloro-N,N-dioctadecylbut-2-yn-1-amine] | – |
| 55 to 56 | CCCCCCCCCCCCCCCCCCN(CC#CCN(CCCCCCCCCCCCCCCCCC)CCCCCCCCCCCCCCCCCC)CCCCCCCCCCCCCCCCCC [Compound 52, N,N,N′,N′-Tetraoctadecylbut-2-yne-1,4-diamine] | – |
| 43 to 44 | C#CCN(CC#C)CCCCCCCCCCCCCCCCCC [Compound 57, N-Octadecyl-N,N-diprop-2-ynylamine] | – |
| 124 to 125 | CCCCCCCCCCCCCCCCCCNC(=O)CCC(=O)O [Compound 58, 4-(Octadecylamino)-4-oxobutanoic acid] | – |
| 86 to 87 | CCCCCCCCCCCCCCCCCCNC(=O)CCC(=O)OC [Compound 59, Methyl 4-(octadecylamino)-4-oxobutanoate] | – |
| 68 to 69 | CCCCCCCCCCCCCCCCCCNCCCCO [Compound 60, 4-(Octadecylamino)butan-1-ol] | – |
| 86 to 87 | CCCCCCCCCCCCCCCCCCNC(=O)CCCO [Compound 62, 4-Hydroxy-N-octadecylbutanamide] | – |
| 33 to 34 | C#CCN(CCCCO)CCCCCCCCCCCCCCCCCC [Compound 63, 4-[Octadecyl(prop-2-ynyl)amino]butan-1-ol] | – |

From US20190175633A1, “REACTIVE, LIPOPHILIC NUCLEOSIDE BUILDING BLOCKS FOR THE SYNTHESIS OF HYDROPHOBIC NUCLEIC ACIDS” (Ionovation GmbH, priority 2017, published 2019)
